{
  "source": "patent US20110182909A1",
  "about": "“Glufosfamide combination therapy” (priority 2004, published 2011)",
  "key": {"[1]": {"system": "Ramos cells (Burkitt's lymphoma)", "assay": "Alamar Blue cell proliferation assay (3 days)", "assay_type": "cell-based", "conditions": "for Cell proliferation as % control: 3 days; for IC50: single agent", "description": "Ramos cells lines (Burkitt's lymphoma) were obtained from the American Type Culture Collection (ATCC, Rockville, Md.). All cell lines were cultured in Dulbecco's modified Eagle's medium supplemented with 10% fetal calf serum, sodium pyruvate, nonessential amino acids, L-glutamine, vitamins, and antibiotics. Cells were maintained in a humidified incubator containing 5% CO2, 21% O2, at 37° C. All chemical reagents were purchased from Sigma Chemical Co. (St. Louis, Mo.) unless otherwise specified. Glufosfamide was provided directly by Threshold Pharmaceuticals and reconstituted in PBS freshly for each study.\nTo determine the effect of the combinations of the present invention on cell proliferation, the antiproliferative activity of these combinations was tested in a multi-well Alamar Blue based assay (at 3 days). Cell growth in the presence and absence of the test compound as tabulated in Table 1 was compared, as measured by a fluorescence plate reader at excitation 550 nm and emission 590 nm (see Biosource International Inc., Tech Application Notes, Use of Alainar Blue in the measurement of Cell Viability and Toxicity, Determining IC50). Ramos cells (Burkitt's lymphoma) (ATCC Catalog #CRL-1596), 3000 cells/well/180 μl) were seeded in a 96 well plate in RPMI medium (Invitrogen Corporation, Carlsbad, Calif.) and incubated overnight. After 24 hours, these plates were divided into Control group and 3 day treatment group.\nA test compound (Glufosfamide, Carboplatin, or Etoposide) was added to each plate in the treatment groups at a concentration as tabulated in Tables 1A-1D (in 200 μl of medium, respectively). The cells were incubated for 3 days, followed by staining with AlamarBlue. In the Control group, AlamarBlue was added to the plate at (i) day 0 and (ii) day 3 and measured to establish the control reading. In all the groups, the capacity of the cells to proliferate was measured 17 hours after addition of AlamarBlue using a fluorescence plate reader at excitation 550 nm and emission 590 nm. […] Dose dependent percent inhibition was calculated using Graphpad Prism® (GraphPad Software, Inc.). These values were then applied against the Combination Index (CI) method as described by Chou and Talalay (Chou, T. C. and Talalay, P., Quantitative analysis of dose-effect relationships: The combined effects of multiple drugs or enzyme inhibitors. Adv. Enz. Regul. 22:27-55, 1984) using CalcuSyn software (Biosoft).\nThe effect of the combinations of the present invention on cell proliferation was determined by comparing cell growth in the presence and absence of the test combinations as tabulated in the tables below according to the procedure described above."}, "[2]": {"conditions": "in contrast to ifosfamide; cited from earlier work"}, "[3]": {"conditions": "mesna given concomitantly with ifosfamide; cited from earlier work"}},
  "note": "Where two headings read alike, the source gives them in different places.",
  "data": [
    {"smiles": "N.N.O=C([O-])C1(C(=O)[O-])CCC1.[Pt+2]", "note": "[Carboplatin]", "values": [
      {"measurement": "Cell proliferation as % control", "setting": "[1]; Table 1A, Carboplatin 0.4 μM", "result": 97, "unit": "% control"},
      {"measurement": "Cell proliferation as % control", "setting": "[1]; Table 1A, Carboplatin 3.7 μM", "result": 94, "unit": "% control"},
      {"measurement": "Cell proliferation as % control", "setting": "[1]; Table 1A, Carboplatin 11 μM", "result": 68, "unit": "% control"},
      {"measurement": "Cell proliferation as % control", "setting": "[1]; Table 1A, Carboplatin 33 μM", "result": 46, "unit": "% control"},
      {"measurement": "Cell proliferation as % control", "setting": "[1]; Table 1A, Carboplatin 100 μM", "result": 0, "unit": "% control"},
      {"measurement": "Cell proliferation as % control", "setting": "[1]; Table 1A, Carboplatin 300 μM", "result": 0, "unit": "% control"},
      {"measurement": "IC50", "setting": "[1]; Table 1B, 3 days (from Table 1A), read-out: IC50", "result": 25, "unit": "µM"},
      {"measurement": "Cell proliferation as % control", "setting": "[1]; Table 1C, Carboplatin 0.4 μM", "result": 98, "unit": "% control"},
      {"measurement": "Cell proliferation as % control", "setting": "[1]; Table 1C, Carboplatin 3.7 μM", "result": 89, "unit": "% control"},
      {"measurement": "Cell proliferation as % control", "setting": "[1]; Table 1C, Carboplatin 11 μM", "result": 74, "unit": "% control"},
      {"measurement": "Cell proliferation as % control", "setting": "[1]; Table 1C, Carboplatin 33 μM", "result": 45, "unit": "% control"},
      {"measurement": "Cell proliferation as % control", "setting": "[1]; Table 1C, Carboplatin 100 μM", "result": 0, "unit": "% control"},
      {"measurement": "Cell proliferation as % control", "setting": "[1]; Table 1C, Carboplatin 300 μM", "result": 0, "unit": "% control"},
      {"measurement": "IC50", "setting": "[1]; Table 1D, 3 days (from Table 1C), read-out: IC50", "result": 25, "unit": "µM"}
    ]},
    {"smiles": "COc1cc([C@@H]2c3cc4c(cc3[C@@H](O[C@@H]3O[C@@H]5CO[C@@H](C)O[C@H]5[C@H](O)[C@H]3O)[C@H]3COC(=O)[C@H]23)OCO4)cc(OC)c1O", "note": "[Etoposide]", "values": [
      {"measurement": "IC50", "setting": "[1]; Homo sapiens, 72 h, Table 1B, 3 days (from Table 1A), read-out: IC50", "result": "< 0.13", "unit": "µM"},
      {"measurement": "IC50", "setting": "[1]; Homo sapiens, 72 h, Table 1D, 3 days (from Table 1C), read-out: IC50", "result": 0.076, "unit": "µM"},
      {"measurement": "Cell proliferation as % control", "setting": "[1]; Table 1A, Etoposide 0.13 μM", "result": 37, "unit": "% control"},
      {"measurement": "Cell proliferation as % control", "setting": "[1]; Table 1A, Etoposide 0.4 μM", "result": 26, "unit": "% control"},
      {"measurement": "Cell proliferation as % control", "setting": "[1]; Table 1A, Etoposide 3.7 μM", "result": 3, "unit": "% control"},
      {"measurement": "Cell proliferation as % control", "setting": "[1]; Table 1A, Etoposide 11 μM", "result": 0, "unit": "% control"},
      {"measurement": "Cell proliferation as % control", "setting": "[1]; Table 1A, Etoposide 33 μM", "result": 0, "unit": "% control"},
      {"measurement": "Cell proliferation as % control", "setting": "[1]; Table 1A, Etoposide 100 μM", "result": 0, "unit": "% control"},
      {"measurement": "Cell proliferation as % control", "setting": "[1]; Table 1C, Etoposide 0.004 μM", "result": 97, "unit": "% control"},
      {"measurement": "Cell proliferation as % control", "setting": "[1]; Table 1C, Etoposide 0.013 μM", "result": 91, "unit": "% control"},
      {"measurement": "Cell proliferation as % control", "setting": "[1]; Table 1C, Etoposide 0.04 μM", "result": 62, "unit": "% control"},
      {"measurement": "Cell proliferation as % control", "setting": "[1]; Table 1C, Etoposide 0.37 μM", "result": 35, "unit": "% control"},
      {"measurement": "Cell proliferation as % control", "setting": "[1]; Table 1C, Etoposide 1.1 μM", "result": 14, "unit": "% control"},
      {"measurement": "Cell proliferation as % control", "setting": "[1]; Table 1C, Etoposide 3.3 μM", "result": 0, "unit": "% control"},
      {"measurement": "Cell proliferation as % control", "setting": "[1]; Table 1C, Etoposide 10 μM", "result": 0, "unit": "% control"}
    ]},
    {"smiles": "O=P(NCCCl)(NCCCl)OC1OC(CO)C(O)C(O)C1O", "note": "[Glufosfamide, α-D-glucosyl-ifosfamide mustard]", "values": [
      {"measurement": "IC50", "setting": "[1]; Homo sapiens, 72 h, Table 1B, 3 days (from Table 1A)", "result": 180, "unit": "µM"},
      {"measurement": "IC50", "setting": "[1]; Homo sapiens, 72 h, Table 1D, 3 days (from Table 1C)", "result": 120, "unit": "µM"},
      {"measurement": "Cell proliferation as % control", "setting": "[1]; Table 1A, Glufosfamide 0.7 μM", "result": 91, "unit": "% control"},
      {"measurement": "Cell proliferation as % control", "setting": "[1]; Table 1A, Glufosfamide 2 μM", "result": 92, "unit": "% control"},
      {"measurement": "Cell proliferation as % control", "setting": "[1]; Table 1A, Glufosfamide 6 μM", "result": 94, "unit": "% control"},
      {"measurement": "Cell proliferation as % control", "setting": "[1]; Table 1A, Glufosfamide 19 μM", "result": 81, "unit": "% control"},
      {"measurement": "Cell proliferation as % control", "setting": "[1]; Table 1A, Glufosfamide 56 μM", "result": 65, "unit": "% control"},
      {"measurement": "Cell proliferation as % control", "setting": "[1]; Table 1A, Glufosfamide 167 μM", "result": 65, "unit": "% control"},
      {"measurement": "Cell proliferation as % control", "setting": "[1]; Table 1A, Glufosfamide 500 μM", "result": 0, "unit": "% control"},
      {"measurement": "Cell proliferation as % control", "setting": "[1]; Table 1C, Glufosfamide 9 μM", "result": 91, "unit": "% control"},
      {"measurement": "Cell proliferation as % control", "setting": "[1]; Table 1C, Glufosfamide 19 μM", "result": 79, "unit": "% control"},
      {"measurement": "Cell proliferation as % control", "setting": "[1]; Table 1C, Glufosfamide 37.5 μM", "result": 70, "unit": "% control"},
      {"measurement": "Cell proliferation as % control", "setting": "[1]; Table 1C, Glufosfamide 75 μM", "result": 64, "unit": "% control"},
      {"measurement": "Cell proliferation as % control", "setting": "[1]; Table 1C, Glufosfamide 150 μM", "result": 54, "unit": "% control"},
      {"measurement": "Cell proliferation as % control", "setting": "[1]; Table 1C, Glufosfamide 300 μM", "result": 11, "unit": "% control"},
      {"measurement": "Cell proliferation as % control", "setting": "[1]; Table 1C, Glufosfamide 600 μM", "result": 0, "unit": "% control"},
      {"measurement": "production of chloroacetaldehyde", "setting": "[2]", "result": "produces less chloroacetaldehyde"},
      {"measurement": "release of the toxic metabolite acrolein", "setting": "[2]", "result": "does not release the toxic metabolite acrolein"}
    ]},
    {"smiles": "O=S(=O)(O)CCS", "note": "[mesna, mercaptoethane sulfonate sodium]", "values": [
      {"measurement": "patients who do not respond to mesna and develop hematuria", "setting": "[3]", "result": "up to 6%"}
    ]}
  ]
}
